# Assay results taken from paper PMC5244392, “Interspecies cathelicidin comparison reveals divergence in antimicrobial activity, TLR modulation, chemokine induction and regulation of phagocytosis” (Scientific Reports, 2017).
# Assays:
# [1] = system: E. coli ATCC 25922 and S. aureus ATCC 29213; assay: Bacterial growth delay, additional strains (Supplementary Fig. S1); assay type: cell-based, Escherichia coli; Staphylococcus aureus; conditions: E. coli ATCC 25922 and S. aureus ATCC 29213 compared with E. coli O78 and MRSA; MHB or DMEM + FCS; N = 2
# Experimental: E. coli O78 (Zoetis Animal Health, Kalamazoo, MI, USA), E. coli ATCC 25922, Staphylococcus aureus ATCC 29213, and methicillin resistant Staphylococcus aureus (MRSA) (WKZ-2, human clinical isolate) were grown overnight from a glycerol stock in Mueller Hinton Broth (MHB) (Becton Dickinson, USA). Before use, bacteria were grown to mid-log phase in MHB for 2 hours at 37 °C, 200 RPM. Murine RAW264.7 macrophages (ATCC-TIB-71) were obtained from the American Type Culture Collection (ATCC, Manassas, VA, USA) and cultured in DMEM (41966-029; Thermo Fisher Scientific, Waltham, MA, USA) supplemented with 10% FCS (Bodinco B.V., Alkmaar, the Netherlands) (DMEM + FCS) at 37 °C, 5.0% CO2. […]
# Peptides (0.63 to 40 μM) and bacteria mid-log cultures (2 * 10^6 CFU/ml) were prepared in MHB or DMEM + FCS and mixed (100 μl peptide + 100 μl bacterial culture) in a Bioscreen C analyzer plate (Oy Growth Curves Ab Ltd, Helsingfors, Finland). […] The OD was measured every 15 minutes using a wideband filter (450–580 nm) to measure bacterial growth. The time needed grow above an OD of 0.6 was determined for all concentrations. […]
# E. coli ATCC 25922 and S. aureus ATCC 29213 (1x10^6 CFU/ml) were grown in MHB or DMEM+FCS for 16 hours under constant shak ing (200 RPM) in the presence of diﬀerent concentration of cathelicidins (0.31 µM, 0.63 µM, 1.25 µM, 2.5 µM, 5 µM, 10 µM, and 20 µM). The OD was measured ever y 15 minutes. […]
# [2] = system: E. coli O78; assay: Sytox green membrane leakage assay; assay type: cell-based, Escherichia coli; conditions: 30 min at 37 °C, MHB or DMEM + FCS, peptide 0.31-20 μM; N = 3
# Experimental: Peptide dilutions and bacteria suspensions were prepared as described above for testing the antimicrobial activity in the Bioscreen C analyzer. Peptide dilutions and bacteria were mixed 1:1 and incubated for 30 minutes at 37 °C. Next, bacteria were washed once with PBS and transferred to black 96-wells assay plates (Corning, OH, USA). Bacteria were incubated with […] sytox green (Life technologies) (λex 504 nm and λem 523 nm) for 5 minutes after which fluorescence was measured using a FLUOstar Omega microplate reader (BMG Labtech GmbH, Ortenberg, Germany).
# The capacity of peptides to induce membrane leakage was tested using the permeability marker sytox green. […] For MRSA, fluorescence levels were generally very low even at >Cmax levels, hampering a good comparison between growth delay and permeabilization for this strain.
# Supplementary Figure 2: Bacterial membrane leakage
# E. Coli O78 and MRSA (1x10^6 CFU/ml) were grown in MHB or DMEM+FCS for 30 minutes at 37°C in the presence of diﬀerent concentrations of cathelicidins (0.31 µM, 0.63 µM, 1.25 µM, 2.5 µM, 5 µM, 10 µM, and 20 µM), after which the cells were stained with sytox green to measure membrane leakage. E. Coli in MHB, dark green line; E. Coli in DMEM, light green line; MRSA in MHB, dark blue line; MRSA in DMEM, light blue line. Results are presented as average +/- SEM (N = 3).
# Peptide concentration (µ M) […]
# [3] = system: S. aureus; assay: MBC by plating wells without visible growth, S. aureus; assay type: cell-based, Staphylococcus aureus; conditions: S. aureus in DMEM; results not shown
# Experimental: In order to compare our Cmax with MBC values, wells without visible bacterial growth were plated out on TSA plates and incubated o/n at 37 °C to determine the presence of viable bacteria.
# The antimicrobial capacities were tested under the same conditions and expressed as growth delay instead of the more classical MIC/MBC determination using broth dilution assays. […] The fact that DMEM medium makes S. aureus susceptible to PR-39 is surprising since this peptide is thought to require active uptake by the SbmA transporter, only present in Gram – bacteria. The results obtained in this work, might indicate that the peptide possibly switches to a different mechanism of action with initially a bacteriostatic effect, but more thorough studies are required to elucidate the details of these initial observations.
sequence,measurement,setting,value
"RRRPRPPYLPRPRPPPFFPPRLPPRIPPGFPPRFPPRFP [PR-39, porcine proline-rich cathelicidin forming a polyproline helix, 39 residues, charge +10]",Fold difference in Cmax with other bacterial strains,[1],8–16 fold
same,"Membrane permeability (sytox green fluorescence), in words",[2],minimal permeability
same,Fold higher MBC than Cmax,[3],16 fold
